Test results taken from US10315996B2, “ROR gamma (RORγ) modulators” (LEAD PHARMA HOLDING B.V., priority 2015, dated 2019).

Molecular target: T1, RORγ (Homo sapiens, UniProt P51449)
T1 construct: expressed in transfected cells; host or cells: 293FT cells (Invitrogen), expression vector pFN26A (Promega)
T1 sequence (P51449 269-508 limits assumed): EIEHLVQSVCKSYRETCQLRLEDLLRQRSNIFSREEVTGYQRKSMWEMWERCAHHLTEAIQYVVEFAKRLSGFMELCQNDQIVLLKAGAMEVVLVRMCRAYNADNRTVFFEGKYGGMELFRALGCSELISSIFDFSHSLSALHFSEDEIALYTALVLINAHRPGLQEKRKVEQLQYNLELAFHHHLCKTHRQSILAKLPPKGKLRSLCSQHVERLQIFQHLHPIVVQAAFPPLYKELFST
Experiment: RORγ GAL4 reporter gene assay
Format: cell-based
Conditions: inhibition of RORγ activity, GAL4-RORγ-LBD luciferase reporter in 293FT cells, overnight incubation; read-out: mean pIC50 (converted)
Procedure: Example inhibitors 1-166 were tested for their ability to inhibit RORγ activity in a RORγ GAL4 reporter gene assay. The assay procedure and results are described below.
RORγ GAL4 Reporter Gene Assay Description
A GAL4 one-hybrid reporter system employing luciferase readout was established to determine inhibition of RORγ in 293FT cells. The RORγ ligand-binding domain (LBD) was fused to the yeast GAL4 DNA binding domain (DBD) and placed under the control of the human cytomegalovirus (CMV) immediate early promoter, using expression vector pFN26A (Promega) and standard recombinant DNA cloning methods. To serve as a control in the assay, a similar vector was generated in which the GAL4-DBD was fused to Herpes simplex virus protein 16 (VP16), a constitutive transcriptional activator.
To monitor the inhibitory effect of compounds on RORγ, a transcriptional reporter construct was used. The pGL4.35 vector (Promega) contains nine copies of the GAL4 Upstream Activator Sequence (UAS). This sequence drives the transcription of the luciferase reporter gene luc2P in response to binding of a fusion protein containing the GAL4 DNA binding domain, as for example expressed by the GAL4-RORγ-LBD and GAL4-VP16 expression vectors described above. To allow a GAL4 fusion protein to drive the expression of the luciferase reporter, the pGL4.35 expression vector and the appropriate GAL4 fusion protein expression vector were bulk transfected in the 293FT cells using standard transfection techniques.
The day after transfection, cells were plated into 96 well plates, test compound was added and the plates were incubated overnight. Subsequently, the firefly luciferase activity was quantified using luciferase detection reagent and luminescence readout.
Detailed Assay Description
293FT cells (Invitrogen) were transfected with a GAL4 fusion protein expression vector (as described above) and the transcriptional reporter construct (pGL4.35, Promega). 60 μL of TransIT-293 transfection reagent (Mirus Bio) was added drop wise to 1500 μl Opti-MEM I Reduced Serum Medium (Invitrogen) and incubated at room temperature (RT) for 5 to 20 minutes. 1500 μL of this reagent mixture was added to 5 μg of GAL4 fusion protein expression vector and 5 μg of the transcriptional reporter construct, and incubated at RT for 20 minutes.
To harvest 293FT cells from a T75 flask, first the culture medium was taken off the cells. Subsequently, the cells were washed with Phosphate Buffered Saline (PBS) (Lonza), after which the PBS was removed. To dissociate the cells, 1 ml of TrypLE Express (Invitrogen) was added to the flask, followed by incubation at RT until the cells visually started to detach. Cells were collected in 5 mL of assay medium (DMEM culture medium (Lonza), 10% dialyzed FBS (Invitrogen) and Pen/Strep (Lonza)) to achieve a single cell suspension. 10×10^6 cells were spun down and re-suspended in 10 mL of assay medium. Subsequently, the cell suspension was added to the transfection mix tube, and then transferred as a whole to a T75 flask (Greiner), followed by overnight (16-24 hours) incubation at 37° C. and 5% CO2.
For compound screening, the cells were harvested (as described above) and counted. 13×10^6 cells were spun down, the supernatant was aspirated and the cells were re-suspended in 17.3 mL of assay medium obtaining a cell suspension of 0.75×10^6 cells/mL. 80 μL of cell suspension (60,000 cells) was plated per well into a white, flat bottom, tissue culture treated, 96 well screening plates (Greiner).
Test compounds were diluted, starting from a 10 mM dimethylsulfoxide (DMSO) stock solution, to serial dilutions in DMSO at 500× the final test concentration. Subsequently, these solutions were diluted to 5× the final test concentration in two 10-fold-dilution steps in assay medium. The final DMSO concentration of the 5× test compound solution was 1%. […]

How did the IC50 turn out when O=C(Cc1ccc(S(=O)(=O)CC2CC2)cc1)Nc1ccc(C(=O)N2CCCC2c2ccccc2)cc1 (centres unmarked) [Example 35, 2-(4-cyclopropylmethanesulfonylphenyl)-N-[4-(2-phenylpyrrolidine-1-carbonyl)phenyl]acetamide] was run?
Its IC50 is ≤ 100 nM.

With O=C(Cc1ccc(S(=O)(=O)CC2CC2)cc1)Nc1ccc(C(=O)N(CC(F)(F)F)c2ccccc2)cc1 [Example 104, 4-[2-(4-cyclopropylmethanesulfonylphenyl)acetamido]-N-phenyl-N-(2,2,2-trifluoroethyl)benzamide] as the compound, how does the IC50 read?
Its IC50 is ≤ 10 nM.

How did the IC50 turn out when CC(C)(C)N(C(=O)c1ccc(NC(=O)Cc2ccc(S(=O)(=O)CC3CC3)cc2)cc1)c1ccccc1 [Example 130, N-tert-butyl-4-[2-(4-cyclopropylmethanesulfonylphenyl)acetamido]-N-phenylbenzamide] was run?
Its IC50 is ≤ 10 nM.

CCN(C(=O)c1ccc(NC(=O)Cc2ccc(S(=O)(=O)CC3CC3)cc2)cc1F)c1ccccc1Cl [Example 118, N-(2-chlorophenyl)-4-[2-(4-cyclopropylmethanesulfonylphenyl)acetamido]-N-ethyl-2-fluorobenzamide] was tested. Which IC50 did it give?
Its IC50 is ≤ 10 nM.

For O=C(Cc1ccc(S(=O)(=O)CC2CC2)cc1)Nc1ccc(C(=O)N(c2ccccc2)c2ccc(Br)cc2)cc1 [Example 115, N-(4-bromophenyl)-4-[2-(4-cyclopropylmethanesulfonylphenyl)acetamido]-N-phenylbenzamide], which IC50 is on record?
The IC50 was ≤ 100 nM.

Which IC50 does the source give for COc1ccccc1N(C)C(=O)c1ccc(NC(=O)Cc2ccc(S(=O)(=O)CC3CC3)cc2)cc1C [Example 122, 4-[2-(4-cyclopropylmethanesulfonylphenyl)acetamido]-N-(2-methoxyphenyl)-N,2-dimethylbenzamide] here?
The IC50 was ≤ 10 nM.

For CC(C)(C1CCCO1)N(C(=O)c1ccc(NC(=O)Cc2ccc(S(=O)(=O)CC3CC3)nc2)cc1)c1ccccc1 (centres unmarked) [Example 160, 4-[2-(6-cyclopropylmethanesulfonylpyridin-3-yl)acetamido]-N-[2-(oxolan-2-yl)propan-2-yl]-N-phenylbenzamide], which IC50 is on record?
Its IC50 is ≤ 100 nM.

CCN(C(=O)c1ccc(NC(=O)Cc2ccc(S(=O)(=O)CC3CC3)cc2)cc1)c1ccccc1 [Example 16, 4-[2-(4-cyclopropylmethanesulfonylphenyl)acetamido]-N-ethyl-N-phenylbenzamide] was tested. Which IC50 did it give?
Its IC50 is ≤ 10 nM.

With CCN(Cc1cc(C)on1)C(=O)c1ccc(NC(=O)Cc2ccc(S(=O)(=O)CC3CC3)cc2)cc1 [Example 56, 4-[2-(4-cyclopropylmethanesulfonylphenyl)acetamido]-N-ethyl-N-[(5-methyl-1,2-oxazol-3-yl)methyl]benzamide] as the compound, how does the IC50 read?
Its IC50 is ≤ 100 nM.

How did the IC50 turn out when CN(CCc1ccccc1)C(=O)c1ccc(NC(=O)Cc2ccc(S(=O)(=O)CC3CC3)cc2)cc1 [Example 10, 4-[2-(4-cyclopropylmethanesulfonylphenyl)acetamido]-N-methyl-N-(2-phenylethyl)benzamide] was run?
Its IC50 is ≤ 100 nM.

With CCOC(=O)C1CCCN(C(=O)c2ccc(NC(=O)Cc3ccc(S(=O)(=O)CC4CC4)cc3)cc2)C1 (centres unmarked) [Example 25, ethyl 1-{4-[2-(4-cyclopropylmethanesulfonylphenyl)acetamido]benzoyl}piperidine-3-carboxylate] as the compound, how does the IC50 read?
The IC50 was ≤ 1000 nM.

Which IC50 does the source give for O=C(Cc1ccc(S(=O)(=O)NC2CC2)cc1)Nc1ccc(C(=O)N2CCCCC2c2ccccc2)cc1 (centres unmarked) [Example 66, 2-[4-(cyclopropylsulfamoyl)phenyl]-N-[4-(2-phenylpipendine-1-carbonyl)phenyl]acetamide] here?
The IC50 was ≤ 100 nM.

Which IC50 does the source give for Cc1ccc(N(C(=O)c2ccc(NC(=O)Cc3ccc(S(=O)(=O)CC4CC4)cc3)cc2)C(C)(C)CO)cc1 [Example 153, 4-[2-(4-cyclopropylmethanesulfonylphenyl)acetamido]-N-(1-hydroxy-2-methylpropan-2-yl)-N-(4-methylphenyl)benzamide] here?
The IC50 was ≤ 100 nM.

CCCCN(C(=O)c1ccc(NC(=O)Cc2ccc(S(=O)(=O)CC3CC3)cc2)cc1)c1nccs1 [Example 82, N-butyl-4-[2-(4-cyclopropylmethanesulfonylphenyl)acetamido]-N-(1,3-thiazol-2-yl)benzamide] was tested. Which IC50 did it give?
Its IC50 is ≤ 100 nM.

Cc1ccc(N(C(=O)c2ccc(NC(=O)Cc3ccc(S(=O)(=O)NC4CC4)cc3)cc2)C(C)(C)CO)cc1 [Example 154, 4-{2-[4-(cyclopropylsulfamoyl)phenyl]acetamido}-N-(1-hydroxy-2-methylpropan-2-yl)-N-(4-methylphenyl)benzamide] was tested. Which IC50 did it give?
The IC50 was ≤ 100 nM.

For CCN(C(=O)c1ccc(NC(=O)Cc2ccc(S(=O)(=O)CC3CC3)cc2)cc1OC)c1ccccc1 [Example 58, 4-[2-(4-cyclopropylmethanesulfonylphenyl)acetamido]-N-ethyl-2-methoxy-N-phenylbenzamide], which IC50 is on record?
The IC50 was ≤ 100 nM.

CN(C(=O)c1ccc(NC(=O)Cc2ccc(S(=O)(=O)CC3CC3)cc2)cc1)C1CCCCC1 [Example 34, N-cyclohexyl-4-[2-(4-cyclopropylmethanesulfonylphenyl)acetamido]-N-methylbenzamide] was tested. Which IC50 did it give?
The IC50 was ≤ 1000 nM.

C[C@@H](c1ccccc1)N(C)C(=O)c1ccc(NC(=O)Cc2ccc(S(=O)(=O)CC3CC3)cc2)cc1 [Example 18, 4-[2-(4-cyclopropylmethanesulfonylphenyl)acetamido]-N-methyl-N-[(1S)-1-phenylethyl]benzamide] was tested. Which IC50 did it give?
Its IC50 is ≤ 100 nM.

Which IC50 does the source give for CCNC(=O)c1ccc(NC(=O)Cc2ccc(S(=O)(=O)CC3CC3)cc2)cc1 [Example 2, 4-[2-(4-cyclopropylmethanesulfonylphenyl)acetamido]-N-ethylbenzamide] here?
The IC50 was ≤ 1000 nM.

CN(C(=O)c1ccc(NC(=O)Cc2ccc(S(=O)(=O)NC3CC3)cc2)cc1)c1ccccc1 [Example 44, 4-{2-[4-(cyclopropylsulfamoyl)phenyl]acetamido}-N-methyl-N-phenylbenzamide] was tested. Which IC50 did it give?
The IC50 was ≤ 100 nM.

How did the IC50 turn out when CCN(C(=O)c1ccc(NC(=O)Cc2ccc(S(=O)(=O)CC3CC3)cc2)cc1)c1cccnc1 [Example 52, 4-[2-(4-cyclopropylmethanesulfonylphenyl)acetamido]-N-ethyl-N-(pyridin-3-yl) benzamide] was run?
Its IC50 is ≤ 100 nM.

For CCN(C(=O)c1ccc(NC(=O)Cc2ccc(S(=O)(=O)CC3CC3)cc2)cc1C)c1cccc(C)c1C [Example 164, 4-[2-(4-cyclopropylmethanesulfonylphenyl)acetamido]-N-(2,3-dimethylphenyl)-N-ethyl-2-methylbenzamide], which IC50 is on record?
The IC50 was ≤ 10 nM.

Which IC50 does the source give for CN(C(=O)c1ccc(NC(=O)Cc2ccc(S(=O)(=O)CC3CC3)cc2)cc1F)c1ccccc1F [Example 126, 4-[2-(4-cyclopropylmethanesulfonylphenyl)acetamido]-2-fluoro-N-(2-fluorophenyl)-N-methylbenzamide] here?
Its IC50 is ≤ 10 nM.

CCCN(Cc1ccccc1)C(=O)c1ccc(NC(=O)Cc2ccc(S(=O)(=O)CC3CC3)cc2)cc1 [Example 21, N-benzyl-4-[2-(4-cyclopropylmethanesulfonylphenyl)acetamido]-N-propylbenzamide] was tested. Which IC50 did it give?
The IC50 was ≤ 10 nM.

How did the IC50 turn out when O=C(Cc1ccc(S(=O)(=O)CC2CC2)cc1)Nc1ccc(C(=O)N2CCCC(c3ccccc3)C2)cc1 (centres unmarked) [Example 48, 2-(4-cyclopropylmethanesulfonylphenyl)-N-[4-(3-phenylpiperidine-1-carbonyl)phenyl]acetamide] was run?
The IC50 was ≤ 100 nM.

Which IC50 does the source give for CCN(C(=O)c1ccc(NC(=O)Cc2ccc(S(=O)(=O)CC3CC3)cc2)nc1)c1ccccc1 [Example 51, 6-[2-(4-cyclopropylmethanesulfonylphenyl)acetamido]-N-ethyl-N-phenylpyridine-3-carboxamide] here?
Its IC50 is ≤ 100 nM.
